In the test the target is T1, recombinant human SAE enzyme (Homo sapiens, UniProt Q9UBT2).
T1 sequence (Q9UBT2 1-640): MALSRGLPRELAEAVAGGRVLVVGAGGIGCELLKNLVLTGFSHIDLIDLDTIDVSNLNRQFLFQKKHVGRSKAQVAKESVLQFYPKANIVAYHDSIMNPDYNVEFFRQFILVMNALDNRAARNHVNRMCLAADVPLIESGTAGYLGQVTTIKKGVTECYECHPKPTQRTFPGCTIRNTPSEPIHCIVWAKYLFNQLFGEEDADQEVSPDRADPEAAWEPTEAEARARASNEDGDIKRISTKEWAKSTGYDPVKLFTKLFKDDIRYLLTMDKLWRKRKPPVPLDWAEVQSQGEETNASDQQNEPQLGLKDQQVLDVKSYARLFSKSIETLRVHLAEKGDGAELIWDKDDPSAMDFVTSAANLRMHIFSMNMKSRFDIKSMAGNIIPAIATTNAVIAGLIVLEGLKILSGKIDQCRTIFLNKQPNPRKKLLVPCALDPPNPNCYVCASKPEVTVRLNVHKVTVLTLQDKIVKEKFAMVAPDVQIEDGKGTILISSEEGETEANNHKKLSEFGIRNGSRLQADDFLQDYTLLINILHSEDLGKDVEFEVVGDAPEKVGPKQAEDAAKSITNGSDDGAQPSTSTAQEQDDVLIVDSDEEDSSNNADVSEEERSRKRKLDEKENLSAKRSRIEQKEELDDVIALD
T1 sequence (Q9UBE0 1-346 partner): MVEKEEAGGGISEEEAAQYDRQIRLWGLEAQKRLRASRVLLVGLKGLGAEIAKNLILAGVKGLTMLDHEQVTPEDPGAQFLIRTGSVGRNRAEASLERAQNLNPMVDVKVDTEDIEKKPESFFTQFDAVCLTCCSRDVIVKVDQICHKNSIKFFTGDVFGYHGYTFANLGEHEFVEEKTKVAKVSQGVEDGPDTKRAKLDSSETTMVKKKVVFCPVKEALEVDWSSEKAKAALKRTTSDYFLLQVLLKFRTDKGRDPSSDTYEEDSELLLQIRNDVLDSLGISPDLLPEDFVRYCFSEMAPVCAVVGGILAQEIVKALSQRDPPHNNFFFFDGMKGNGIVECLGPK
Nature of the test: SAE HTRF Enzyme Assay. It is filed as biochemical. The following applies: for IC50: class symbols A-C; for inhibition at 0.111 µM: compound concentration 0.111 μM, read-out: Percent Inhibition. In a few lines: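 Measured as FRET after a 2 h antibody step: SAE (0.11 nM) thioester transfer of Sumo-Flag to Ubc9-GST, 0.5 μM ATP, 24° C for 105 min, quenched with 20 mM EDTA. Output is IC50 or percent inhibition at a single concentration.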

SMILES strings stand for the structures.

Among the data in patent publication US9695154B2, “Heteroaryl inhibitors of sumo activating enzyme” (MILLENNIUM PHARMACEUTICALS, INC., priority 2013, dated 2017) are IC50 and inhibition values, retold here.

Usually IC50 stands for the concentration needed to halve the response being measured. A word on the inhibition: it is the percentage by which the read-out fell short of the control.

As for `Cc1cc(Cn2ccc(C(=O)c3cncnc3N[C@@H]3C[C@H](COS(N)(=O)=O)[C@@H](O)C3)n2)ccc1F` [Compound I-14, {(1R,2S,4R)-4-[(5-{[1-(4-fluoro-3-methylbenzyl)-1H-pyrazol-3-yl]carbonyl}pyrimidin-4-yl)amino]-2-hydroxycyclopentyl}methyl sulfamate], the IC50 was under 10 nM and the inhibition at 0.111 µM was 98%.

For the molecule `NS(=O)(=O)OC[C@H]1C[C@@H](Nc2ncncc2C(=O)c2ccn(Cc3cccc(Br)c3)n2)[C@@H](F)[C@@H]1O` [Compound I-15, {(1R,2R,3R,4R)-4-[(5-{[1-(3-bromobenzyl)-1H-pyrazol-3-yl]carbonyl}pyrimidin-4-yl)amino]-3-fluoro-2-hydroxycyclopentyl}methyl sulfamate], the IC50 is under 10 nM and the inhibition at 0.111 µM stood at 98%.

Regarding `NS(=O)(=O)OC[C@H]1C[C@@H](Nc2ncncc2C(=O)c2ccn(Cc3c(F)ccc(F)c3F)n2)C[C@@H]1O` [Compound I-16, {(1R,2S,4R)-2-hydroxy-4-[(5-{[1-(2,3,6-trifluorobenzyl)-1H-pyrazol-3-yl]carbonyl}pyrimidin-4-yl)amino]cyclopentyl}methyl sulfamate], the IC50 was under 10 nM and the inhibition at 0.111 µM came to 98%.

For `NS(=O)(=O)OC[C@H]1C[C@@H](Nc2ncncc2C(=O)c2ccn(Cc3cc4ccccc4o3)n2)C[C@@H]1O` [Compound I-17, {(1R,2S,4R)-4-[(5-{[1-(1-benzofuran-2-ylmethyl)-1H-pyrazol-3-yl]carbonyl}pyrimidin-4-yl)amino]-2-hydroxycyclopentyl}methyl sulfamate], the IC50 is under 10 nM and the inhibition at 0.111 µM stood at 99%.

Regarding `NS(=O)(=O)OC[C@H]1C[C@@H](Nc2ccncc2C(=O)c2ccn(Cc3cccc(OC(F)(F)F)c3)n2)C[C@@H]1O` [Compound I-18, [(1R,2S,4R)-2-hydroxy-4-{[3({1-[3-(trifluoromethoxy)benzyl]-1H-pyrazol-3-yl}carbonyl)pyridin-4-yl]amino}cyclopentyl]methyl sulfamate], the IC50 was under 10 nM and the inhibition at 0.111 µM amounted to 96%.

Take `NS(=O)(=O)OC[C@H]1C[C@@H](Nc2ncncc2C(=O)c2ccn(CC(=O)N3CCCC3)n2)[C@@H](F)[C@@H]1O` [Compound I-19, [(1R,2R,3R,4R)-3-Fluoro-2-hydroxy-4-{[5-({1-[2-oxo-2-(pyrrolidin-1-yl)ethyl]-1H-pyrazol-3-yl}carbonyl)pyrimidin-4-yl]amino}cyclopentyl]methyl sulfamate]: the IC50 lay within 100 to 1000 nM and the inhibition at 0.111 µM came out at 20%.

`NS(=O)(=O)OC[C@H]1C[C@@H](Nc2ncncc2C(=O)c2ccn(Cc3cccc(OC(F)(F)F)c3)n2)C[C@@H]1O` [Compound I-20, [(1R,2S,4R)-2-hydroxy-4-{[5-({1-[3-(trifluoromethoxy)benzyl]-1H-pyrazol-3-yl}carbonyl)pyrimidin-4-yl]amino}cyclopentyl]methyl sulfamate]: the half-maximal inhibitory concentration (IC50) is under 10 nM and the inhibition at 0.111 µM came out at 96%.

As to `NS(=O)(=O)OC[C@H]1C[C@@H](Nc2ncncc2C(=O)c2ccn(Cc3ccc(F)c(C(F)(F)F)c3)c2)C[C@@H]1O` [Compound I-21, [(1R,2S,4R)-4-{[5-({1-[4-fluoro-3-(trifluoromethyl)benzyl]-1H-pyrrol-3-yl}carbonyl)pyrimidin-4-yl]amino}-2-hydroxycyclopentyl]methyl sulfamate], the IC50 was under 10 nM and the inhibition at 0.111 µM stood at 99%.

`Cc1cccc(Cn2ccc(C(=O)c3cncnc3N[C@@H]3C[C@H](COS(N)(=O)=O)[C@@H](O)C3)n2)c1F` [Compound I-22, {(1R,2S,4R)-4-[(5-{[1-(2-fluoro-3-methylbenzyl)-1H-pyrazol-3-yl]carbonyl}pyrimidin-4-yl)amino]-2-hydroxycyclopentyl}methyl sulfamate]: the IC50 was under 10 nM and the inhibition at 0.111 µM came to 100%.

For `NS(=O)(=O)OC[C@H]1C[C@@H](Nc2ncncc2C(=O)c2ccn(Cc3cccc(OC(F)(F)F)c3)n2)[C@@H](F)[C@@H]1O` [Compound I-23, [(1R,2R,3R,4R)-3-Fluoro-2-hydroxy-4-{[5-({1-[3-(trifluoromethoxy)benzyl]-1H-pyrazol-3-yl}carbonyl)pyrimidin-4-yl]amino}cyclopentyl]methyl sulfamate], the IC50 is under 10 nM and the inhibition at 0.111 µM amounted to 98%.

Take `NS(=O)(=O)OC[C@H]1C[C@@H](Nc2ncncc2C(=O)c2ccn(Cc3ccc(Br)o3)c2)[C@@H](F)[C@@H]1O` [Compound I-24, [(1R,2R,3R,4R)-4-{[5-({1-[(5-Bromo-2-furyl)methyl]-1H-pyrrol-3-yl}carbonyl)pyrimidin-4-yl]amino}-3-fluoro-2-hydroxycyclopentyl]methyl sulfamate]: the half-maximal inhibitory concentration (IC50) is under 10 nM and the inhibition at 0.111 µM was 100%.

In the case of `N#Cc1cccc(Cn2ccc(C(=O)c3cncnc3N[C@@H]3C[C@H](COS(N)(=O)=O)[C@@H](O)[C@H]3O)n2)c1` [Compound I-25, {(1R,2R,3S,4R)-4-[(5-{[1-(3-cyanobenzyl)-1H-pyrazol-3-yl]carbonyl}pyrimidin-4-yl)amino]-2,3-dihydroxycyclopentyl}methyl sulfamate], the concentration for half-maximal inhibition (IC50) was under 10 nM and the inhibition at 0.111 µM stood at 93%.

As for `CC(C)(C)C#CCn1ccc(C(=O)c2cncnc2N[C@@H]2C[C@H](COS(N)(=O)=O)[C@@H](O)[C@@H]2F)c1` [Compound I-26, {(1R,2R,3R,4R)-4-[(5-{[1-(4,4-dimethylpent-2-yn-1-yl)-1H-pyrrol-3-yl]carbonyl}pyrimidin-4-yl)amino]-3-fluoro-2-hydroxycyclopentyl}methyl sulfamate], the 50% inhibitory concentration (IC50) fell in the range of 10 to 100 nM and the inhibition at 0.111 µM worked out at 90%.

`NS(=O)(=O)OC[C@H]1C[C@@H](Nc2ncncc2C(=O)c2ccn(CC#CC3(O)CCOCC3)n2)C[C@@H]1O` [Compound I-27, [(1R,2S,4R)-2-hydroxy-4-{[5-({1-[3-(4-hydroxytetrahydro-2H-pyran-4-yl)prop-2-yn-1-yl]-1H-pyrazol-3-yl}carbonyl)pyrimidin-4-yl]amino}cyclopentyl]methyl sulfamate]: the IC50 lay in the range of 100 to 1000 nM and the inhibition at 0.111 µM worked out at 9%.

Consider `CCOCCn1ccc(C(=O)c2cncnc2N[C@@H]2C[C@H](COS(N)(=O)=O)[C@@H](O)[C@H]2O)n1` [Compound I-28, {(1R,2R,3S,4R)-4-[(5-{[1-(2-ethoxyethyl)-1H-pyrazol-3-yl]carbonyl}pyrimidin-4-yl)amino]-2,3-dihydroxycyclopentyl}methyl sulfamate], for which the concentration for half-maximal inhibition (IC50) fell in the range of 10 to 100 nM and the inhibition at 0.111 µM is 78%.

With `NS(=O)(=O)OC[C@H]1C[C@@H](Nc2ncncc2C(=O)c2ccn(Cc3cncc(Br)c3)n2)C[C@@H]1O` [Compound I-29, [(1R,2S,4R)-4-{[5-({1-[(5-bromopridin-3-yl)methyl]-1H-pyrazol-3-yl}carbonyl)pyrimidin-4-yl]amino}-2-hydroxycyclopentyl]methyl sulfamate], the IC50 fell in the range of 10 to 100 nM and the inhibition at 0.111 µM came out at 94%.

`NS(=O)(=O)OC[C@H]1C[C@@H](Nc2ncncc2C(=O)c2ccn(CC3CC3)n2)[C@H](O)[C@@H]1O` [Compound I-30, {(1R,2R,3S,4R)-4-[(5-{[1-(cyclopropylmethyl)-1H-pyrazol-3-yl]carbonyl}pyrimidin-4-yl)amino]-2,3-dihydroxycyclopentyl}methyl sulfamate]: the IC50 was in the range of 10 to 100 nM and the inhibition at 0.111 µM is 66%.

`Cc1cc(C(=O)c2cncnc2N[C@@H]2C[C@H](COS(N)(=O)=O)[C@@H](O)[C@H]2O)nn1Cc1ccccc1` [Compound I-31, [(1R,2R,3S,4R)-4-({5-[(1-benzyl-5-methyl-1H-pyrazol-3-yl)carbonyl]pyrimidin-4-yl}amino)-2,3-dihydroxycyclopentyl]methyl sulfamate]: the IC50 was under 10 nM and the inhibition at 0.111 µM was 94%.

Consider `Cc1ccc(F)c(Cn2ccc(C(=O)c3cncnc3N[C@@H]3C[C@H](COS(N)(=O)=O)[C@@H](O)C3)n2)c1` [Compound I-32, {(1R,2S,4R)-4-[(5-{[1-(2-fluoro-5-methylbenzyl)-1H-pyrazol-3-yl]carbonyl}pyrimidin-4-yl)amino]-2-hydroxycyclopentyl}methyl sulfamate], for which the IC50 was under 10 nM and the inhibition at 0.111 µM came to 98%.
